This note sets out measurements from patent US10626144B2, “Peptide derivatives and uses thereof” (Nosopharm, priority 2014, dated 2020).

Square brackets hold non-standard residues; d marks the D form. Peptide text beside a SMILES is read from it. * marks the point of attachment. ξ: configuration not given here. Oic(3aξ,7aξ) = O=C(O)[C@@H]1CC2CCCCC2N1; Phe(4-Me) = Cc1ccc(C[C@H](N)C(=O)O)cc1; Dab(3S-OH) = NC[C@H](O)[C@H](N)C(=O)O; ΔZArg = N=C(N)NCC/C=C(\N)C(=O)O; dOrn = NCCC[C@@H](N)C(=O)O; Dab = NCC[C@H](N)C(=O)O; NH(CH2)4NH2 = NCCCCN*; NHiPr = CC(C)N*

Test in all cases: MIC, broth microdilution (CLSI), reference strain
Holding throughout (conditions): CAMHB
(Dilution methods test growth across graded concentrations, often in twofold steps.)

The subject of experiment [1] is Staphylococcus aureus ATCC 13709.
Experiment [2] has as its system Acinetobacter baumannii ATCC 19606.
Experiment [3] has as its system Escherichia coli ATCC 25922.
For experiment [4], the system named is Pseudomonas aeruginosa ATCC 27853.

Consider `N=C(N)NCC/C=C(\NC(=O)[C@H](CCCCN)NC(=O)[C@H](Cc1cnc[nH]1)NC(=O)[C@@H]1CCCN1C(=O)[C@@H](CCCN)NC(=O)CNC(=O)[C@H](CCN)NC(=O)[C@H](CCN)NC(=O)[C@@H](N)CCCCN)C(=O)N[C@@H](CCCCN)C(=O)NCCCCN` [11.1] (H-K[Dab][Dab]G[dOrn]PHK[ΔZArg]K-{NH(CH2)4NH2}), for which, in experiment [1], the “Sa: MIC Staphylococcus aureus ATCC 13709” value was “++ (≤8 μg/mL)”. The “Ab: MIC Acinetobacter baumannii ATCC 19606” value in experiment [2] is “− (>32 μg/mL)”. Besides, in experiment [3], the “Ec: MIC Escherichia coli ATCC 25922” value is reported as “− (>32 μg/mL)”. In experiment [4], the “Pa: MIC Pseudomonas aeruginosa ATCC 27853” value is recorded as “− (>32 μg/mL)”.
With `CC(C)NC(=O)/C(=C/CCNC(=N)N)NC(=O)[C@H](CCCCN)NC(=O)[C@H](Cc1cnc[nH]1)NC(=O)[C@@H]1CCCN1C(=O)[C@@H](CCCN)NC(=O)CNC(=O)[C@H](C)NC(=O)[C@@H](NC(=O)[C@@H](N)CCCCN)[C@@H](O)CN` [24.162] (H-K[Dab(3S-OH)]AG[dOrn]PHK[ΔZArg]-NHiPr), in experiment [1], the “Sa: MIC Staphylococcus aureus ATCC 13709” value is “++ (≤8 μg/mL)”. For the same compound, the “Ab: MIC Acinetobacter baumannii ATCC 19606” value in experiment [2] is recorded as “− (>32 μg/mL)”. Moreover, the “Ec: MIC Escherichia coli ATCC 25922” value in experiment [3] is reported as “+ (≤32 μg/mL)”. Moreover, in experiment [4], the “Pa: MIC Pseudomonas aeruginosa ATCC 27853” value is listed as “− (>32 μg/mL)”.
In the case of `C[C@H](NC(=O)[C@@H](NC(=O)[C@@H](N)CCCCN)[C@@H](O)CN)C(=O)NCC(=O)N[C@H](CCCN)C(=O)N1C2CCCCC2C[C@H]1C(=O)N[C@@H](Cc1cnc[nH]1)C(=O)N[C@@H](CCCCN)C(=O)N/C(=C\CCNC(=N)N)C(=O)O` (stereo partly drawn) [24.75] (H-K[Dab(3S-OH)]AG[dOrn][Oic(3aξ,7aξ)]HK[ΔZArg]-OH), in experiment [1], the “Sa: MIC Staphylococcus aureus ATCC 13709” value is given as “+ (≤32 μg/mL)”. For the same compound, the “Ab: MIC Acinetobacter baumannii ATCC 19606” value in experiment [2] is on record as “− (>32 μg/mL)”. Further, in experiment [3], the “Ec: MIC Escherichia coli ATCC 25922” value is on record as “+ (≤32 μg/mL)”. Further, in experiment [4], the “Pa: MIC Pseudomonas aeruginosa ATCC 27853” value is “− (>32 μg/mL)”.
Take `CC(C)C[C@H](NC(=O)[C@@H](NC(=O)[C@@H](N)CCCCN)[C@@H](O)CN)C(=O)NCC(=O)N[C@H](CCCN)C(=O)N1CCC[C@H]1C(=O)N[C@@H](Cc1cnc[nH]1)C(=O)N[C@@H](CCCCN)C(=O)N/C(=C\CCNC(=N)N)C(=O)N[C@@H](CCCCN)C(=O)NCCCCN` [29.1] (H-K[Dab(3S-OH)]LG[dOrn]PHK[ΔZArg]K-{NH(CH2)4NH2}): the “Sa: MIC Staphylococcus aureus ATCC 13709” value in experiment [1] is on record as “+ (≤32 μg/mL)”. The “Ab: MIC Acinetobacter baumannii ATCC 19606” value in experiment [2] is “− (>32 μg/mL)”. In experiment [3], the “Ec: MIC Escherichia coli ATCC 25922” value was “− (>32 μg/mL)”. In addition, in experiment [4], the “Pa: MIC Pseudomonas aeruginosa ATCC 27853” value is “− (>32 μg/mL)”.
On to `N=C(N)NCC/C=C(\NC(=O)[C@H](CCCCN)NC(=O)[C@H](Cc1cnc[nH]1)NC(=O)[C@@H]1CCCN1C(=O)[C@@H](CCCN)NC(=O)CNC(=O)[C@@H](NC(=O)[C@@H](NC(=O)[C@@H](N)CCCCN)[C@@H](O)CN)[C@@H](O)CN)C(N)=O` [22.31] (H-K[Dab(3S-OH)][Dab(3S-OH)]G[dOrn]PHK[ΔZArg]-NH2), for which the “Sa: MIC Staphylococcus aureus ATCC 13709” value in experiment [1] was “++ (≤8 μg/mL)”. In addition, the “Ab: MIC Acinetobacter baumannii ATCC 19606” value in experiment [2] is listed as “− (>32 μg/mL)”. Also, the “Ec: MIC Escherichia coli ATCC 25922” value in experiment [3] is “++ (≤8 μg/mL)”. Moreover, in experiment [4], the “Pa: MIC Pseudomonas aeruginosa ATCC 27853” value was “− (>32 μg/mL)”.
For `Cc1ccc(C[C@H](NC(=O)[C@@H]2CCCN2C(=O)[C@@H](CCCN)NC(=O)CNC(=O)[C@H](C)NC(=O)[C@@H](NC(=O)[C@@H](N)CCCCN)[C@@H](O)CN)C(=O)N[C@@H](CCCCN)C(=O)N/C(=C\CCNC(=N)N)C(=O)O)cc1` [24.104] (H-K[Dab(3S-OH)]AG[dOrn]P[Phe(4-Me)]K[ΔZArg]-OH), in experiment [1], the “Sa: MIC Staphylococcus aureus ATCC 13709” value is recorded as “++ (≤8 μg/mL)”. Also, the “Ab: MIC Acinetobacter baumannii ATCC 19606” value in experiment [2] was “− (>32 μg/mL)”. For the same compound, the “Ec: MIC Escherichia coli ATCC 25922” value in experiment [3] is given as “+ (≤32 μg/mL)”. The “Pa: MIC Pseudomonas aeruginosa ATCC 27853” value in experiment [4] was “− (>32 μg/mL)”.
